Assay in all cases: PubChem AID 504934
One assay deals with VP16 Control Plasmid. The settings on record: nuclear receptor panel Gal4 luciferase reporter, at 10 µM. For orientation: A reporter such as luciferase makes a cellular process visible.
The test system of the next assay is TR4. The following applies: nuclear receptor panel Gal4 luciferase reporter, at 10 µM.
Assay [1] concerns the target Estrogen receptor beta (Homo sapiens) (UniProt Q92731). The following applies: nuclear receptor panel Gal4 luciferase reporter, Erb (ESR2), at 10 µM.
For assay [2], the target named is Peroxisome proliferator-activated receptor gamma (Homo sapiens) (UniProt P37231). The settings on record: nuclear receptor panel Gal4 luciferase reporter, PPARg, at 10 µM.

Each structure is given as a SMILES string. Active and inactive are the calls of the source. The rule behind the calls is not given here.

Chain of Peroxisome proliferator-activated receptor gamma (Homo sapiens) (P37231 whole entry, looked up, the tested form may be a part): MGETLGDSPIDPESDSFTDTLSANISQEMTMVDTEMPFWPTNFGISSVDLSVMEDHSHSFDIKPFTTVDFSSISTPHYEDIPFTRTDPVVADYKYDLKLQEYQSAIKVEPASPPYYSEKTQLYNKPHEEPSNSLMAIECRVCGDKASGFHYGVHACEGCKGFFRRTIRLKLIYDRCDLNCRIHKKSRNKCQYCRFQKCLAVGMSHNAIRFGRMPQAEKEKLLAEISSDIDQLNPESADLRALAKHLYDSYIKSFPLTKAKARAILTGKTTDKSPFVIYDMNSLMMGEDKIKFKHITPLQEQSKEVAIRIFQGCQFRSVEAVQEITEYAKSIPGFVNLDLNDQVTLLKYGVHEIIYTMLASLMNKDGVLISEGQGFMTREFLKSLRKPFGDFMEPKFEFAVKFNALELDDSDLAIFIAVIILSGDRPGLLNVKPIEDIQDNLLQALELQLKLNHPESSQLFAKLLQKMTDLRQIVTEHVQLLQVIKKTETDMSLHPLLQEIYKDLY
Chain of Estrogen receptor beta (Homo sapiens) (Q92731 whole entry, looked up, the tested form may be a part): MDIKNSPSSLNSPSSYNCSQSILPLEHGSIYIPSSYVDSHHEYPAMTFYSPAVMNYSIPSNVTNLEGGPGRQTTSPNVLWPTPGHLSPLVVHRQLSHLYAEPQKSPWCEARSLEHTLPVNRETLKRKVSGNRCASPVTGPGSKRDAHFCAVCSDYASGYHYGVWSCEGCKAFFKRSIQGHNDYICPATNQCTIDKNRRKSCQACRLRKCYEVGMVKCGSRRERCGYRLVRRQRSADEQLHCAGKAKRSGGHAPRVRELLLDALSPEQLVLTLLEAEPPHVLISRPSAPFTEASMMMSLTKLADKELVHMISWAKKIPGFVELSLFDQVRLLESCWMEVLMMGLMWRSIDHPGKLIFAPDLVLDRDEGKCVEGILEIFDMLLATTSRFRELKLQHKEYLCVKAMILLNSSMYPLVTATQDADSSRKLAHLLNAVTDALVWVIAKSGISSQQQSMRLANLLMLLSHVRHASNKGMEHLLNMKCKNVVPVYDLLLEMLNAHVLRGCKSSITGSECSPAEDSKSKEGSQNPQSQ

Consider `O=c1cc(N2CCN(c3cccc(Cl)c3)CC2)[nH]c(=O)n1C1CCCCC1`, for which the fold change is 0.82 (inactive) in the assay on VP16 Control Plasmid, 0.8 in the assay with TR4, 0.56 in assay [1] and 0.86 (inactive) in assay [2].
